In paper PMC8713471, “Insights Into the Inhibition of MOX-1 β-Lactamase by S02030, a Boronic Acid Transition State Inhibitor” (Frontiers in Microbiology, 2021):

Legend:
MOX-1 β-lactamase [1] = biological target: T1, MOX-1 β-lactamase (Klebsiella pneumoniae, UniProt Q51578); assay: Inhibition of cephalothin hydrolysis by purified MOX-1, […] min pre-incubation, UV/VIS (Ki and IC50); assay type: biochemical; set-up: gene blaMOX-1; purified MOX-1, (His)8 tag removed with thrombin
MOX-1 β-lactamase [2] = biological target: T1, MOX-1 β-lactamase; assay: X-ray crystal structure at […] Å; also Ki and IC50 with purified enzyme (cephalothin hydrolysis); assay type: biochemical; set-up: gene blaMOX-1; N-terminal (His)8-tagged MOX-1 for crystals (model Asp6-Arg305 and Gln310-Gly362); tag removed with thrombin for kinetics

T1 sequence (Q51578 entry or part of it): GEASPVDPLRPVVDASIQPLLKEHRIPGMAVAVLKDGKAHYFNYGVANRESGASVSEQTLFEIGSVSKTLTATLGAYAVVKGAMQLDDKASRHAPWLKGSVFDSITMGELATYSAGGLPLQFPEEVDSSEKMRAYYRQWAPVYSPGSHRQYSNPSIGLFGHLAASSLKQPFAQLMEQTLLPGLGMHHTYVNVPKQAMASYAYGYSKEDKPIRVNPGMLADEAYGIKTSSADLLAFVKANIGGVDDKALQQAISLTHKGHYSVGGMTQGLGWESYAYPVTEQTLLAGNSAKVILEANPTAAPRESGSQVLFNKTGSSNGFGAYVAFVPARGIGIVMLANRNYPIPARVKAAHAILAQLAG

Row | Structure (SMILES) | Ki (MOX-1 β-lactamase [1]) [nM] | Ki (MOX-1 β-lactamase [2]) [nM]
1 | C[C@H]1[C@H](NC(=O)/C(=N\OC(C)(C)C(=O)O)c2csc(N)n2)C(=O)N1S(=O)(=O)O [Aztreonam] | 10 ± 1 | 
2 | O=C(Cc1cccs1)N[C@@H](Cn1cc(C(=O)O)nn1)B(O)O [S02030] |  | 560 ± 30
